Assay results reported in article PMC2689245, “Purification and characterization of a serine protease (CESP) from mature coconut endosperm” (BMC Research Notes, 2009).

Tested on: T1, CESP (coconut endosperm protease)
T1 construct: native, purified from fully matured coconut kernel (endosperm)
Test: p-nitroaniline release at […] nm
Type: biochemical, Cocos nucifera
Conditions: 100 mM Tris HCl pH 8.5, 37 °C

Km: 200 µM
Structure (SMILES): N=C(N)NCCCC(NC(=O)c1ccccc1)C(=O)Nc1ccc([N+](=O)[O-])cc1 (racemic) [BAPNA]
